Source: article PMC12801355, “Peptide Amphiphiles Hitchhike on Endogenous Biomolecules for Enhanced Cancer Imaging and Therapy” (Advanced Materials (Deerfield Beach, Fla.), 2025)
Like-named read-outs stand apart in the source and are kept apart here. *1 amine or outer side, *2 acyl side, *3 side chain or, on linkers, in order; H or OH if unused. Where a SMILES comes first, the peptide text is derived from it. Bridges are numbered along the chain shown (N, C = ends). Roman numbers before positions name the chains, in order. [ ]: non-standard residue; d: D form. The star is where a group is joined. Hexanoyl(6-succinimido-3yl) = O=C1CC([*:1])C(=O)N1CCCCCC(=O)[*:2]; Dolaproine = CO[C@@H]([C@@H]1CCCN1)[C@@H](C)C(=O)O; Dil = CC[C@H](C)[C@H](NC)[C@@H](CC(=O)O)OC; PABC = O=C(OCc1ccc(N[*:1])cc1)[*:2]; Palmitoyl = CCCCCCCCCCCCCCCC(=O)*; X1 = C[C@@H](N*)[C@@H](O)c1ccccc1; Cit = NC(=O)NCCC[C@H](N)C(=O)O; NMeV = CN[C@H](C(=O)O)C(C)C

Key:
4T1 tumor = assay: Antitumor effect, 4T1 orthotopic mouse model
Method: (§1) All experiments were approved by the Oregon Health and Science University (OHSU) Institutional Animal Care and Use Committee (IACUC) (TR01_IP00000674) and conformed to the guidelines set by the United States Animal Welfare Act and the National Institutes of Health. Mice were aged between 3 and 8 months and 20–30 g in weight and were housed in specific pathogen free cages. Human, mouse, or rat cells were injected into nude (The Jackson Laboratory, 002019), NSG mice (The Jackson Laboratory, 005557), Balb/c mice (The Jackson Laboratory, 000651), or C57Bl/6J mice (The Jackson Laboratory, 000664), as specified below. Cells were injected in 100 µL sterile DMEM at a concentration of 0.5–1×10^7 cells mL^−1, unless otherwise specified. For tumor accumulation and biodistribution studies, A375 cells were injected intradermally into the left ears of NSG mice (The Jackson Laboratory, 005557). MCF7 cells were injected into the mammary fat pad of NSG mice. HCT‐116, RG2, and HeLa (wild type or LDL‐R knockout) cells were subcutaneously injected into the left or both flanks of NSG mice. 4T1 cells were injected into the mammary fat pad of Balb/c mice. LLC1, MC38, and TRAMP‐C2 (wild type or SR‐B1 knockout) were injected into C57Bl/6J mice. Patient‐derived xenografts were generated by injecting the patient‐derived cancer cells subcutaneously into the left flank of NSG mice. ApoA1 and LDL‐R knockout mice were purchased from the Jackson Laboratory (002055 and 002207, respectively). MC38 cells were subcutaneously injected into both flanks of these mice. Apc^min and MMTV‐PyMT mice were purchased from the Jackson Laboratory (002020 and 002374). For antitumor activity studies, 4T1 cells were injected into the mammary fat pad of Balb/c mice. HCT‐116 and RG2 cells were subcutaneously injected into the left flanks of nude mice. For antitumor activity studies, HCT‐116 cells were injected in a 1:1 mixture of DMEM and Matrigel (Life Science 354263).
(§2) Mice were injected with 4T1, RG2, or HCT‐116 cells as described above. Mice were then treated intravenously with the free MMAE (0.1 or 0.3 mg kg^−1), SA‐E‐MMAE (0.3, 0.6, 0.8, or 1 mg kg^−1) or PBS (10 mM, pH 7.4). 5 doses were given every 2–3 days over 11 days. […] Tumor size and mouse weight were monitored 2–3 times per week until a humane endpoint (tumor size ≈2 cm or >20% body weight loss) or the study endpoint (18, 25, or 120 days for 4T1, RG2, and HCT‐116 studies, respectively). Tumor size was measured in two directions with a caliper rounded to the nearest tenth of a mm. Volume was calculated as a basic sphere of 4/3πr^3.

RG2 xenografts = assay: Antitumor effect, RG2 xenografts in nude mice; assay type: in vivo, mouse; settings: 1 mg kg^−1 IV, 5 doses
Method: All experiments were approved by the Oregon Health and Science University (OHSU) Institutional Animal Care and Use Committee (IACUC) (TR01_IP00000674) and conformed to the guidelines set by the United States Animal Welfare Act and the National Institutes of Health. Mice were aged between 3 and 8 months and 20–30 g in weight and were housed in specific pathogen free cages. Human, mouse, or rat cells were injected into nude (The Jackson Laboratory, 002019), NSG mice (The Jackson Laboratory, 005557), Balb/c mice (The Jackson Laboratory, 000651), or C57Bl/6J mice (The Jackson Laboratory, 000664), as specified below. Cells were injected in 100 µL sterile DMEM at a concentration of 0.5–1×10^7 cells mL^−1, unless otherwise specified. For tumor accumulation and biodistribution studies, A375 cells were injected intradermally into the left ears of NSG mice (The Jackson Laboratory, 005557). MCF7 cells were injected into the mammary fat pad of NSG mice. […]
as §2, with “above.” for “above. Mice were then treated intravenously with the free MMAE (0.1 or 0.3 mg kg^−1), SA‐E‐MMAE (0.3, 0.6, 0.8, or 1 mg kg^−1) or PBS (10 mM, pH 7.4). 5 doses were given every 2–3 days over 11 days.”

[1] = Fluorescence polarization of PA nanostructures; assay type: physicochemical; settings: ICG‐conjugated SA‐E (10 mol%) mixed with MMAE‐conjugated SA‐E (90 mol%), 200 µM total; mean ± SEM
Method: ICG (10 mol%) containing PA micelles were prepared by mixing ICG‐conjugated PAs with unconjugated or MMAE‐conjugated PAs to achieve a final concentration of 20 µM ICG‐conjugated PAs and 200 µM of total PAs. Aliquots of 100 µL were added to a 96‐well plate (3 wells for each PA). Fluorescence polarization measurements were performed using a microplate reader (TECAN Spark 20 M). The corrected parallel intensity (I par) and perpendicular intensity (Iper) were used to calculate the fluorescence anisotropy (r) using the following equation: r = […].

HCT‐116 tumor = tested on: HCT‐116 tumor
Method: as §1, §2

[2] = tested on: LPs (HDL, LDL, VLDL) and albumin in pooled human plasma; assay: FPLC of PAs in 10% human plasma; settings: MMAE conjugated SA‐E, 250 µM, detection at 250 nm
Method: FPLC experiments were performed using SA‐E, SA‐K, or No‐SA conjugated with ICG or SA‐E conjugated with MMAE at a final concentration of 250 µM in filtered PBS (10 mM, pH 7.4) with or without human plasma or purified LPs or albumin. For analysis of SA‐E interactions with purified LPs, VLDL, LDL, HDL, and human serum albumin were diluted in filtered PBS to approximate concentrations found in 10% human plasma: 0.0025, 0.13, 0.05, and 5mg mL^−1, respectively. SA‐E was incubated with the purified LP/protein mixture for 30 min at 37 °C before injection. For analysis of plasma interactions, PAs or No‐SA were incubated in PBS containing 10% pooled human plasma for 30 min at 37 °C before injection. The total volume injected for all samples was 400 µL. All data was collected on an ÄKTA pure chromatography system using the following running conditions: size exclusion chromatography on a Superose 6 Increase 10/300 GL column with a column volume (CV) of 30 mL, pre‐column pressure limit of 5 MPa, delta‐column pressure limit of 2.6 MPa, flow rate of 0.75 mL min^−1, in 100% PBS. The sample running method included first an equilibration step before injection of the sample with 100% PBS for 0.5 CV, followed by sample application via 1 mL capillary loop in 100% PBS, and finished with a linear elution consisting of 2 CV collected in 1 mL fractions. The UV‐Vis detector wavelengths were 250, 280, and 700 nm to detect MMAE, all proteins/LPs, and ICG, respectively.

With `CCCCCCCCCCCCCCCC(=O)NCC(=O)NCC(=O)NCC(=O)N[C@@H](Cc1c[nH]cn1)C(=O)N[C@@H](C)C(=O)N[C@@H](C)C(=O)N[C@@H](CC(N)=O)C(=O)NCC(=O)N[C@@H](CCC(=O)O)C(=O)N[C@@H](CCC(=O)O)C(=O)N[C@@H](CSC1CC(=O)N(CCCCCC(=O)N[C@H](C(=O)N[C@@H](CCCNC(N)=O)C(=O)Nc2ccc(COC(=O)N(C)[C@H](C(=O)N[C@H](C(=O)N(C)[C@@H]([C@@H](C)CC)[C@@H](CC(=O)N3CCC[C@H]3[C@H](OC)[C@@H](C)C(=O)N[C@H](C)[C@@H](O)c3ccccc3)OC)C(C)C)C(C)C)cc2)C(C)C)C1=O)C(=O)N[C@@H](CCC(=O)O)C(=O)O` (some centres unmarked) [SA‐E‐MMAE] (I: Palmitoyl-GGGHAANGEECE-OH / II: V[Cit][PABC][NMeV]V[Dil][Dolaproine]-X1; linker I:11-II:N via Hexanoyl(6-succinimido-3yl); C-terminus assumed) the tumor growth reduction (4T1 tumor; 0.6 mg kg^−1 (based on MMAE) IV, 5 doses over 11 days, n = 5, versus free MMAE and PBS) was “≈ 75%”, the body weight (4T1 tumor; 0.6 mg kg^−1 IV, 5 doses) was “no significant weight loss” and the “reduction in the tumor volume” value (RG2 xenografts; n = 4, compared to the control) was “around 80%”. For the same molecule, the body weight (RG2 xenografts; at the beginning of the therapy, overall tolerated) was “slight weight loss”, the “fluorescence anisotropy of ICG in micelles” value [1] was 0.188 ± 0.002 and the overall survival (HCT‐116 tumor; 0.8 mg kg^−1 IV, 5 doses, n = 4, log‐rank) was “significantly improved the overall survival”. The “effect on tumor size” value (HCT‐116 tumor; 0.8 mg kg^−1 of MMAE IV, days 11, 14, 17, 19, 21, all mice, n = 4) was “reduction in the tumor size”, the average tumor volume (HCT‐116 tumor; day 21, end of treatment) was “≈ 150 mm^3” and the average tumor volume (HCT‐116 tumor; day 33) was “≈ 40 mm^3”. For the same molecule, the “tumor‐free mice” value (HCT‐116 tumor; day 120) was “one mouse remained tumor‐free on day 120” and the “plasma component bound (FPLC)” value [2] was “assembled with HDL”.
